Reference: patent publication US10022345B2, “Agent for preventing and/or treating veisalgia” (SBI Pharmaceuticals Co., Ltd., priority 2011, dated 2018)
Where “and” joins values, the source holds several entries; their conditions need not be identical. Equal entries are not always repeated. Entries after “also recorded” stand apart in the source; their conditions may differ.

Key:
[1] = Example 8: case of hangover therapy, test subject A, capsule of aminolevulinic acid; type: in vivo, human; details: terrible hangover, one capsule comprising 100 mg
Description: Test subject A who consumed Japanese sake similarly to Example 7 without ingesting any capsules developed a terrible hangover condition. Test subject A ingested one capsule comprising 100 mg of aminolevulinic acid. As a result, symptoms started to recover after 30 minutes had passed since administration, and they had completely recovered after 1.5 hours.

[2] = Example 9: questionnaire total score of ten hangover symptoms with and without ALAs ingestion, fifteen test subjects; type: in vivo, human; details: for Total score After alcohol consumption (same day) / Total score Morning after alcohol consumption: ALAs ingested (10-150 mg total, differs per subject), sum of ten hangover symptom items each scored 0-4, one line per test subject 1-15
Description: The following tests were performed to more quantitatively measure that ALAs are effective for the prevention or therapy of a hangover.
In this experiment, aminolevulinic acid phosphate salt was employed as ALAs.
Each test subject, consumed alcohol in the evening for a total of two times in order to evaluate hangover symptoms in regards to each of (1) when ALAs was ingested and (2) when ALAs was not ingested. In the experiment with ALAs ingestion and the experiment without ALAs ingestion, the order for which of the experiments was performed first and the other of the experiments was performed, later was randomly selected for each test subject. Each experiment was performed with at least a few days apart.
Total amount of alcohol consumption varies by test subject. This is because a moderate amount for each test subject was consumed. Moreover, alcohol consumption was made so that the total amount of the second alcohol consumption was the same as the total amount of the first alcohol consumption (note that as exceptions, (1) the total amount of alcohol consumption when ALAs was ingested and (2) the total amount of alcohol consumption when ALAs was not ingested are not the same for test subjects 1, 2, and 12 in Table 5 below). In Table 5 below, the “total amount of alcohol consumption” indicates a value converted into the total amount of alcohol contained in beer or Japanese sake etc. consumed (in other words, in the case of a 500 ml canned beer, if the alcohol percentage is 5%, it is calculated as […]).
Moreover, for each test subject, the timing of ALAs ingestion (1) when ALAs was ingested was “at the start of alcohol consumption” and/or “after the end of alcohol consumption” as shown in Table 5 below. The ingestion of ALAs (aminolevulinic acid phosphate salt) was performed by selecting at least one from below:
(A) the capsule of Example 1 (contains 50 mg of ALAs),
(B) the capsule of Example 3 (contains 10 mg of ALAs),
(C) “Hanamitsu Drink™” (contains 5 or 10 mg of ALAs, a product generally marketed by the present applicants) for each test subject, ingested in the range of 10 mg-150 mg total.
(A) The body condition “after alcohol consumption on the day of alcohol consumption” (“after alcohol consumption (same day)” in Table 5) and (B) the body condition on “the morning after the day of alcohol consumption” (“morning after alcohol consumption” in Table 5) were quantified with the following scores. In other words, a five-step evaluation (0: no indication, 1: mild, 2: moderate, 3: severe, and 4: profound) was performed for each test subject in regards to the following ten items (a-j) which are hangover symptoms. Then, evaluation values (0-4) for each item were summed for each test subject. The results are described in Table 5 as the “total score” showing hangover symptoms.

[3] = phosphate salt, 10 mg ALAs with 60 mL alcohol
[4] = phosphate salt, 20 mg ALAs with 70 mL alcohol
[5] = phosphate salt, 50 mg ALAs with 14 mL alcohol
[6] = phosphate salt, 50 mg ALAs with 25 mL alcohol
[7] = phosphate salt, 50 mg ALAs with 45 mL alcohol
[8] = phosphate salt, 50 mg ALAs with 79 mL alcohol
[9] = phosphate salt, 50 mg ALAs with 108 mL alcohol
[10] = phosphate salt, 100 mg ALAs with 50 mL alcohol
[11] = phosphate salt, 100 mg ALAs with 75 mL alcohol
[12] = phosphate salt, 100 mg ALAs with 190 mL alcohol
[13] = phosphate salt, 150 mg ALAs with 129 mL alcohol

NCC(=O)CCC(=O)O [aminolevulinic acid, 5-aminolevulinic acid]
time after administration until hangover symptoms started to recover [1]: 30 min
time until complete recovery from hangover [1]: 1.5 h

aminolevulinic acid phosphate salt [ALAs]
Total score After alcohol consumption (same day) [2, 3]: 9
Total score Morning after alcohol consumption [2, 3]: 2
Total score After alcohol consumption (same day) [2, 4]: 1
Total score Morning after alcohol consumption [2, 4]: 1
Total score After alcohol consumption (same day) [2, 5]: 0
Total score Morning after alcohol consumption [2, 5]: 0
Total score After alcohol consumption (same day) [2, 6]: 0 (2×) and 3
Total score Morning after alcohol consumption [2, 6]: 0 (2×) and 3
Total score After alcohol consumption (same day) [2, 7]: 0
Total score Morning after alcohol consumption [2, 7]: 0
Total score After alcohol consumption (same day) [2, 8]: 0
Total score Morning after alcohol consumption [2, 8]: 0
Total score After alcohol consumption (same day) [2, 9]: 0
Total score Morning after alcohol consumption [2, 9]: 0
Total score After alcohol consumption (same day) [2, 10]: 1
Total score Morning after alcohol consumption [2, 10]: 1
Total score After alcohol consumption (same day) [2, 11]: 0
Total score Morning after alcohol consumption [2, 11]: 1 and 0 and 2
Total score After alcohol consumption (same day) [2, 12]: 9
Total score Morning after alcohol consumption [2, 12]: 7
Total score After alcohol consumption (same day) [2, 13]: 0
Total score Morning after alcohol consumption [2, 13]: 1
amount of alcohol consumption possible ([2]; ALAs ingested at the start of alcohol consumption, test subjects 1 and 2): Alcohol consumption at an amount more than usual was possible
hangover symptoms with ALAs ingestion compared to without, conclusions from Table 5 ([2]; subgroups of test subjects, phosphate salt): hangover symptoms were surprisingly mostly reduced; also recorded: Hangover symptoms were generally improved and a prophylactic effect of hangovers was seen; also recorded: no hangover symptoms manifested
